Measured values as given in patent publication EP3290412A1, “HIV-1 NUCLEOCAPSID INHIBITORS” (Università degli Studi di Siena, priority 2016, dated 2018).

Assays:
NC(11-55) = NC(11-55) (Human immunodeficiency virus type 1, UniProt P12493); assay: NC inhibition assay (NC-induced cTAR DNA destabilization, fluorescence); type: biochemical, HIV-1; conditions: for inhibition at 100 µM: single point screening, positive = >25% inhibition at 100µM
Source text: The NC inhibition assay is based on the nucleic acid chaperone activity of the NC protein. NC destabilizes the secondary structure of cTAR DNA, the complementary sequence of the transactivation response element, which is involved in minus-strand DNA transfer during reverse transcription. In the assay, the cTAR sequence from the HIV-1 Mal strain (Bernacchi et al, J Mol Biol, 2002) is labeled with a dye (Alexa488 fluorophore) and a quencher 4-(4'-dimethylaminophenylazo)benzoic acid (Dabcyl) at its 5' and 3' ends, respectively. In the absence of destabilization, the close proximity of both cTAR ends results in a strong fluorescence quenching of the dye emission by the Dabcyl group. NC(11-55) added to cTAR at a ratio of 10 NC/cTAR melts the bottom of the cTAR stem, which increases the distance between the dye and the quencher and as a result increases the dye fluorescence signal [Shvadchak et al, (2009) Identification by high throughput screening of small compounds inhibiting the nucleic acid destabilization activity of the HIV-1 nucleocapsid protein. Biochimie, 916-923]. NCIs are expected to prevent the NC-induced destabilization of cTAR and thus reverse the NC-induced increase in the fluorescence of the labeled cTAR. The activity of the inhibitor is thus evaluated from the ratio of the fluorescence intensity observed in the presence of NC with the molecule to the one in the absence of the compound.
The doubly labelled cTAR DNA oligonucleotides (55nt) were synthesised and purified by IBA GmbH Nucleic Acids Product Supply (Göttingen, Germany). Extinction coefficient at 260 nm of 5.73 x 10^5 M^-1 cm^-1 was used to determine the concentration of cTAR.
The NC(11-55) peptide (Avilov et al, Antimicrob Agents Chemother, 2012) was synthesized by solid-phase peptide synthesis on a 433A synthesizer (ABI, Foster City, CA) as previously described [De Rocquigny H, (1991) First large scale chemical synthesis of the 72 amino acid HIV-1 nucleocapsid protein NCp7 in an active form. Biochem Biophys Res Commun., 1010-1018]. The peptide was stored lyophilized and was resuspended in water before use. The concentration of peptide was determined by using an extinction coefficient of 5.7 x 10^3 M^-1 cm^-1 at 280 nm. Next, 2.5 molar equivalents of ZnSO4 were added and pH was raised to its final value by adding buffer.
All experiments were performed at 20 °C in 25 mM Tris-HCl (pH 7.5), 30 mM NaCl, and 0.2 mM MgCl2. To evaluate the inhibition activity of compounds on NC-induced cTAR destabilization, cTAR DNA (0.1 µM) was preincubated with 1 µM NC(11-55) (molar ratio NC:cTAR = 10:1) for 15 min at room temperature before addition of compound. For single point screening, all compounds were tested at three final concentrations: 1 µM, 10 µM and 100 µM. For the IC50 determination, inhibition of NC-induced cTAR melting was monitored through addition of increasing concentrations of the selected molecules to the pre-formed NC(11-55)-cTAR complex. After the addition of compound, the mixture was incubated for 15 min at room temperature before the reading. The fluorescence signal was recorded with a plate reader Xenius (SAFAS Monaco) or Fluoromax 3 spectrofluorometer (Horiba Jobin-Yvon), and the excitation and emission wavelengths were 480 and 520 nm, respectively. The spectra were corrected for dilution, buffer fluorescence and screening effect (when it was required). In order to check the occurrence of aggregation, we performed additional reading of absorption with the plate reader Xenius (SAFAS Monaco) or Cary 4000 spectrophotometer (Agilent). […]

[1] = target: T1, full length (1-55) HIV-1 NCp7 (Human immunodeficiency virus type 1 group M subtype B, UniProt P12493); assay: Electromobility Shift Assay (EMSA), competition for ssDNA binding; conditions: NCp7 300 nM, M13mp18 ssDNA; positive = >25% inhibition at 100µM
T1 construct: recombinant full length (1-55) HIV-1 NCp7 proteins; made in house
Source text: The assay used a recombinant full length (1-55) HIV-1 NCp7 proteins based on the NL4-3 sequence (GenBank accession number AF324493). The protein was expressed and purified as described in [Carteau, S., Gorelick, R. J. & Bushman, F. D. Coupled integration of human immunodeficiency virus type 1 cDNA ends by purified integrase in vitro: stimulation by the viral nucleocapsid protein. Journal of virology 73, 6670-6679 (1999)].
Competition for single-stranded (ss) DNA binding was realized by mixing 1 µL of serial dilutions of NC inhibitors (diluted in DMSO) with 44 µL of NCp7 (300 nM) in a reaction buffer (20 mM Tris-HCl pH 7.4, 2 mM MgCl2, 100 mM NaCl, 1 mM DTT). 5 µL of a 10 ng/µL (4 nM) solution of M13mp18 ssDNA (BayouBiolabs) were then added and the tubes were incubated for 25 minutes at 37 °C. The reaction was terminated by chilling the tubes on ice followed by the addition of 5 µL of a loading buffer (30% glycerol, 0.01% xylene cyanol, 10 mM Tris-HCl pH 7.4). Samples were then resolved on 25 cm-long, 1% (w/v) agarose gels (SeaKem LE Agarose, Lonza) in 0.5x TBE. Gels were run in a Sub-Cell GT cuvette (BioRad) for 18 h at room temperature at 3 V/cm, stained with SybrGold (Molecular Probes) and scanned for fluorescence using a Typhoon 8600 (GE Healthcare). The experiments were performed in triplicate. Competition efficiency was realized by measuring the relative distance in pixels between the unbound ssDNA control, the NCp7-bound ssDNA control and the bound ssDNA for each points of the titration with the ImageQuant software. The IC50 was estimated as the NC inhibitors concentrations for which the bound ssDNA migrated at 50% of the distance separating the bound from the unbound ssDNA.

HeLa cells = assay: HeLa Proliferation assay (CellTiter Glo); type: cell-based; conditions: 72 hours
Description: HeLa cells (ATCC® CCL2™) in DMEM (Dulbecco Modified Eagle's Medium) without phenol red, Thermo, 11880, USA + 10% FBS + 1X PenStrep + 1X Gln or HUVEC cells (ATCC® CRL1730™) in EBM-2 (Endothelial Growth Basal Medium, Lonza, CC3156) + EGM-2 SingleQuotsTMSupplements and Growth Factors (Lonza, CC4176) + 1X Penicyllin-Streptomycin (PenStrep, ThermoFisher) + 1X Glutamine, are plated in a 384 well plate (Thermo, 4334-11, USA) to a density of 2000 cells per well and let recover for four hours at 37 °C, 5% CO2 in a humidified atmosphere. After the recovery, compounds are transferred to assay plates as per compound preparation method. Assay plates are then incubated at 37 °C, 5% CO2 in a humidified atmosphere for 72 hours. Cell viability is measured by the CellTiter Glo (Promega, G8080, USA) as per manufacturer instruction.

Row | SMILES | IC50 (NC(11-55)) [µM] | inhibition at 100 µM (NC(11-55)) [%] | EMSA screening results [1] | Proliferation assay HELA TD50 (HeLa cells) [µM] | HIV-1 nucleocapsid inhibition (result in words) (NC(11-55); same experimental settings as the compounds of the invention)
1 | O=C(NCC1CCCCC1)c1nc(-c2ccccn2)nc(O)c1O [Compound 1, N-(cyclohexylmethyl)-5,6-dihydroxy-2-(pyridin-2-yl)pyrimidine-4-carboxamide] | 167 | > 25 | Positive (A compound showing >25% inhibition when tested at 100µM concentration is considered as "positive") | 3.5857 | 
2 | O=C(OCC1CCCCC1)c1nc(-c2ccccn2)nc(O)c1O [Compound 2, cyclohexylmethyl 5,6-dihydroxy-2-(pyridin-2-yl)pyrimidine-4-carboxylate] | 74 | > 25 | Negative | >50 | 
3 | O=C(NCC1CC1)c1nc(-c2ccccn2)nc(O)c1O [Compound 3, N-(cyclopropylmethyl)-5,6-dihydroxy-2-(pyridin-2-yl)pyrimidine-4-carboxamide] | 390 | > 25 | Negative | >50 | 
4 | O=C(NC1CCCCC1)c1nc(-c2ccccn2)nc(O)c1O [Compound 4, N-cyclohexyl-5,6-dihydroxy-2-(pyridin-2-yl)pyrimidine-4-carboxamide] | 320 | > 25 | Negative | 8.1353 | 
5 | C[C@@H](NC(=O)c1nc(-c2ccccn2)nc(O)c1O)C1CCCCC1 [Compound 5, (R)-N-(1-cyclohexylethyl)-5,6-dihydroxy-2-(pyridin-2-yl)pyrimidine-4-carboxamide] | 42.5 | > 25 | Positive (A compound showing >25% inhibition when tested at 100µM concentration is considered as "positive") | 3.1844 | 
6 | O=C(NCCC1CCCCC1)c1nc(-c2ccccn2)nc(O)c1O [Compound 6, N-(2-cyclohexylethyl)-5,6-dihydroxy-2-(pyridin-2-yl)pyrimidine-4-carboxamide] | 37.5 | > 25 | Positive (A compound showing >25% inhibition when tested at 100µM concentration is considered as "positive") | 4.2362 | 
7 | CN1CCCC(CNC(=O)c2nc(-c3ccccn3)nc(O)c2O)C1 (centres unmarked) [Compound 7, 5,6-dihydroxy-N-((1-methylpiperidin-3 - yl)methyl)-2-(pyridin-2-yl)pyrimidine-4-carboxamide] | 335 | > 25 | Positive (A compound showing >25% inhibition when tested at 100µM concentration is considered as "positive") | >50 | 
8 | O=C(NCCCC1CCCCC1)c1nc(-c2ccccn2)nc(O)c1O [Compound 8, N-(3-cyclohexylpropyl)-5,6-dihydroxy-2-(pyridin-2-yl)pyrimidine-4-carboxamide] | 27.5 | > 25 | Positive (A compound showing >25% inhibition when tested at 100µM concentration is considered as "positive") | 4.8472 | 
9 | Cc1cccnc1-c1nc(O)c(O)c(C(=O)OCC2CCCCC2)n1 [Compound 10, cyclohexylmethyl 5,6-dihydroxy-2-(3-methylpyridin-2-yl)pyrimidine-4-carboxylate] | 55 | > 25 | Negative | >50 | 
10 | Cc1cccnc1-c1nc(O)c(O)c(C(=O)NCC2CCCCC2)n1 [Compound 11, N-(cyclohexylmethyl)-5,6-dihydroxy-2-(3-methylpyridin-2-yl)pyrimidine-4-carboxamide] | 14.3 | > 25 | Negative | 8.2839 | 
11 | O=C(NCC1CCC1)c1nc(-c2cc3ccccc3cn2)nc(O)c1O [Compound 47, N-(cyclobutylmethyl)-5,6-dihydroxy-2-(isoquinolin-3-yl)pyrimidine-4-carboxamide] | 6.5 | > 25 |  | 3.3326 | 
12 | C[C@@H](NC(=O)c1nc(-c2cc(N)ccn2)nc(O)c1O)C1CCCCC1 [Compound 48, (R)-2-(4-aminopyridin-2-yl)-N-(1-cyclohexylethyl)-5,6-dihydroxypyrimidine-4-carboxamide] | 4 | > 25 |  | 1.5496 | 
13 | C[C@@H](NC(=O)c1nc(-c2ccc(Cl)cn2)nc(O)c1O)C1CCCCC1 [Compound 49, (R)-2-(5-chloropyridin-2-yl)-N-(1-cyclohexylethyl)-5,6-dihydroxypyrimidine-4-carboxamide] | 9 | > 25 |  | 2.0999 | 
14 | C[C@@H](NC(=O)c1nc(-c2ccc(CN3CCCC3)cn2)nc(O)c1O)C1CCCCC1 [Compound 93, (R)-N-(1-cyclohexylethyl)-5,6-dihydroxy-2-(5-(pyrrolidin-1-ylmethyl)pyridin-2-yl)pyrimidine-4-carboxamide] | 50 | > 25 | Negative |  | 
15 | Cc1nnc(C(=O)NC(C)(C)c2nc(C(=O)NCc3ccc(F)cc3)c(O)c(=O)n2C)o1 [Raltegravir™, Raltegravir, reference compound] |  |  |  |  | inactive
